Legend:
[1] = target: T1, human GABAA receptor α1, β2 and γ2 subunits (Homo sapiens, UniProt P14867+P18507+P47870); experiment: Automated patch clamp studies on the GABAA receptor (IonFlux HT); format: cell-based; conditions: 10 μM compound; 15 μM GABA as agonist; CHO-K1 cells expressing human GABAA α1β2γ2
T1 construct: expressed in transfected cells
Method: CHO-K1 cells stably expressing human GABAA receptor α1, β2 and γ2 subunits were used. The cells were harvested using trypsin and maintained in serum-free medium at room temperature. The cells were washed and re-suspended in extracellular solution before testing.
Experiments on human GABAA (α1β2γ2) channels were conducted using an automated patch clamp assay (IonFlux™ HT). Compounds were tested at 3 concentrations (0.1, 1, and 10 μM) in 3 to 4 cells. The external solution for recording GABAA currents was composed of sodium chloride 137 mM, potassium chloride 4 mM, calcium chloride 1.8 mM, magnesium chloride 1 mM, HEPES 10 mM, and glucose 10 mM. Both external and internal solutions were titrated with NaOH or KOH to obtain a pH of 7.35 or 7.3, respectively. The internal pipette solution contained potassium fluoride 70 mM, potassium chloride 60 mM, sodium chloride 70 mM, HEPES 5 mM, EGTA 5 mM, and Magnesium ATP 4 mM. The final concentration of vehicle used to dilute compounds was 0.33% DMSO in each well. Bicuculline (0.032 to 100 μM) was used as positive control inhibitor. GABA (15 μM) was used as agonist. All recordings were obtained from a holding potential of −60 mV.
The compound addition sequence was the following: one addition of the EC80 concentration of GABA was added to establish baseline response. Each concentration of compound was applied for 30 seconds followed by the addition of 15 μM GABA in the presence of the compound for 2 seconds. The process was repeated with the next ascending concentration of compound. Peak inward currents in response to the GABA additions in the presence of a single concentration of compound were measured. All compound data have been normalized to the baseline peak current induced by addition of 15 μM GABA for 2 seconds.

dopamine D1 receptor = target: T2, dopamine D1 receptor (Homo sapiens, UniProt P21728); experiment: cAMP HTRF potentiation assay (PAM, in the presence of EC20 dopamine); format: cell-based; conditions: for Erel (%): maximal % potentiation relative to dopamine maximal response (100%), EC20 dopamine, LMtk cells expressing D1 receptor; for EC50: potentiation of cAMP levels with EC20 dopamine (1.1 nM), LMtk mouse fibroblast cells expressing D1 receptor
T2 construct: host or cells: LMtk (Ltk-) mouse fibroblast cells
T2 sequence (P21728 whole entry): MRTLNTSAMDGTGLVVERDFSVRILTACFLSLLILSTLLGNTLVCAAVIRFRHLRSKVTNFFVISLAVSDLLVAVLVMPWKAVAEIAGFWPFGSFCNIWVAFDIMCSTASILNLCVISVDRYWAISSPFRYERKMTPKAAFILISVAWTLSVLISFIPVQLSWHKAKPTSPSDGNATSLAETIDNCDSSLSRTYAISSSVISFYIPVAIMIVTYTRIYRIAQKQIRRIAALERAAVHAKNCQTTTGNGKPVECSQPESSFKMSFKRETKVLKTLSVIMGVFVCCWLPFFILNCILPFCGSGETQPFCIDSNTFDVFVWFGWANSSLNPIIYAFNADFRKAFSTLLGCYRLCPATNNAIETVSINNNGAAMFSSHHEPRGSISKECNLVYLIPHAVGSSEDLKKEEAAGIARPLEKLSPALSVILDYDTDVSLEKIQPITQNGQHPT
Method: The potentiation assay measures the ability of compounds to increase the levels of cAMP produced by a low-threshold concentration of dopamine. The concentration of dopamine used ([EC20]) is designed to produce 20% stimulation compared to the maximal response (100%) seen with increasing the concentration of dopamine. To measure this potentiation increasing concentrations of the compound with the [EC20] of dopamine are incubated and the potentiation is measured as increases in cAMP production and concentration of compound which produces 50% of the potentiation of the cAMP levels is measured.
Cells were cultured at 37° C. in a humidified atmosphere of 5% CO2. Cells were grown in DMEM-F12+GlutaMAX™-I medium (GIBCO®, Invitrogen, Merelbeke, Belgium) containing 10% fetal bovine serum (BioWhittaker®, Lonza, Verviers, Belgium), 400 μg/mL Geneticin (GIBCO®), 100 IU/mL Penicillin and 100 IU/mL Streptomycin (Pen-Strep solution, BioWhittaker®).
The measurement of changes in intracellular cyclic adenosinemonophopshpate (cAMP) was determined using the HTRF cAMP dynamic assay kit from CisBio (Codolet, France). Using homogenous time-resolved fluoresence technology, the assay is based on competition between native cAMP produced by cells and cAMP labelled with the dye d2. The tracer binding is determined by an anti-cAMP antibody labeled with cryptate. The effects of the compound alone (agonism) was determined by performing the assay in the absence of dopamine, whilst the effect of the compound as a positive allosteric modulator (PAM) was determined in the presence of an EC20 concentration of dopamine. Cells (20,000 per well) are incubated in 384 plates for 1 hour at room temperature in a final volume of 20 μLHBSS (Lonza, with calcium, magnesium and HEPES buffer 20 mM, pH 7.4) containing: isobutyl methylxanthine (Sigma, 0.1 mM final), varying concentrations of test compound (typically 10^−9.5M to […]) in the presence and absence of dopamine (1.1 nM final). The reaction is then terminated and the cells lysed by adding the d2 detection reagent in lysis buffer (10 microL) and the cryptate reagent in lysis buffer (10 microl) according to manufacturer's instructions. This is then incubated for a further 60 min at room temperature and changes in HTRF fluorescent emission ratio determined according to manufacturer's instructions using an Envision plate reader (Perkin Elmer, Zaventem, Belgium) with laser excitation. All incubations were performed in duplicate and results were compared to a concentration-effect curve to dopamine. (10^−11 M to 10^−6 M).
Data was analyzed using Excel and PRISM (GraphPad Software) to obtain pEC50 and Erel using the 4-parameter logistic equation (DeLean et al, 1978) where Erel is the fitted maximal response of the test compound minus basal expressed as a percentage relative to that obtained with dopamine which was defined as 100%.
The pEC50 of a compound is the −log10 of the concentration of the compound which produces 50% of the potentiation of the cAMP levels.
The Erel is the relative efficacy, defined as the maximal % potentiation produced by the compound compared to the maximal response produced by increasing concentrations of dopamine (Erel of 1=dopamine maximum response), has been measured.

T1 sequence (P14867 28-456): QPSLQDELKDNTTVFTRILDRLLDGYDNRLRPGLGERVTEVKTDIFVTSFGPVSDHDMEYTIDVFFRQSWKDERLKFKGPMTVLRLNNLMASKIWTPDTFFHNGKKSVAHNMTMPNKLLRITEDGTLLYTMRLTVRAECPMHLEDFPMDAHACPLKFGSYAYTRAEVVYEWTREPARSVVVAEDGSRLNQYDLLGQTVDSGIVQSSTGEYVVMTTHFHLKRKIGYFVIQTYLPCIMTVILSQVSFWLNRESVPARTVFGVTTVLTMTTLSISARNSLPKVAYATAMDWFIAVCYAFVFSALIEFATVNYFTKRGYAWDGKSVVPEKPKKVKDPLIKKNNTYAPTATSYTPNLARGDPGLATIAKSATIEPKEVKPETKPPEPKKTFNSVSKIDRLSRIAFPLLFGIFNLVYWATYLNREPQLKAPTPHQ
T1 sequence (P47870 25-512 limits assumed): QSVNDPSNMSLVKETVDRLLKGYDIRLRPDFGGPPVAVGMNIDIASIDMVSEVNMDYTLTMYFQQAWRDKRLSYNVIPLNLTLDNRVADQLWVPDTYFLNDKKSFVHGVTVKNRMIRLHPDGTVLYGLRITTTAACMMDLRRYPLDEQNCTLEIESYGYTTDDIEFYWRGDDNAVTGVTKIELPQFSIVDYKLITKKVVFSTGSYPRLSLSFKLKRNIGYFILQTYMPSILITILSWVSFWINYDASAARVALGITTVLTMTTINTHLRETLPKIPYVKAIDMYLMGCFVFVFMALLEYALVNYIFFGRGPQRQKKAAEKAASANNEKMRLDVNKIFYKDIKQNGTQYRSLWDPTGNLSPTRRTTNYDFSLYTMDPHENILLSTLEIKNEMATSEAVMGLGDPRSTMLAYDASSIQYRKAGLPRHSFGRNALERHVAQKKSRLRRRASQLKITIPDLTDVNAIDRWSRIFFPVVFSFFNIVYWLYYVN
T1 sequence (P18507 40-475): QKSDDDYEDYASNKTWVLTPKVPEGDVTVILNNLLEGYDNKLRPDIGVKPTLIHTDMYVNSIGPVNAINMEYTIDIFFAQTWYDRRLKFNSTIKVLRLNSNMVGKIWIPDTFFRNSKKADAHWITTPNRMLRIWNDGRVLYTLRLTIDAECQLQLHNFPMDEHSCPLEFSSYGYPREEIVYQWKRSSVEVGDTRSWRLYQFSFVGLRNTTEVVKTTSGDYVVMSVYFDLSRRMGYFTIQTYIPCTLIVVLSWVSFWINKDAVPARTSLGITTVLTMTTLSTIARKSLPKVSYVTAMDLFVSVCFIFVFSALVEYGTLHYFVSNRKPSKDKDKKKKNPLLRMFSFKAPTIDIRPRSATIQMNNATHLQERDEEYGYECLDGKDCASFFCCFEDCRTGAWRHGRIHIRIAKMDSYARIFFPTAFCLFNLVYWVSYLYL

| Structure (SMILES) | inhibition at 10 µM [1] [%] | Erel (%) (dopamine D1 receptor) | EC50 (dopamine D1 receptor) [nM] |
| --- | --- | --- | --- |
| C[C@H]1c2cccc(-c3cnn(C)c3)c2C[C@H](CO)N1C(=O)Cc1c(Cl)ccc2c1c(Cl)nn2C [Example 1, 2-(3,5-dichloro-1-methyl-indazol-4-yl)-1-[(1S,3R)-3-(hydroxymethyl)-1-methyl-5-(1-methylpyrazol-4-yl)-3,4-dihydro-1H-isoquinolin-2-yl]ethanone] | 2.7 | 74 | 12.6 |
| C[C@H]1c2cccc(-c3cn[nH]c3)c2C[C@H](CO)N1C(=O)Cc1c(Cl)ccc2c1c(Cl)nn2C [Example 2, 2-(3,5-dichloro-1-methyl-indazol-4-yl)-1-[(1S,3R)-3-(hydroxymethyl)-1-methyl-5-(1H-pyrazol-4-yl)-3,4-dihydro-1H-isoquinolin-2-yl]ethanone] | 0 | 71 | 6.31 |
| C[C@H]1c2cccc(-c3cn[nH]c3)c2C[C@H](CO)N1C(=O)Cc1c(Cl)ccc2[nH]nc(Cl)c12 [Example 3, 2-(3,5-dichloro-1H-indazol-4-yl)-1-[(1S,3R)-3-(hydroxymethyl)-1-methyl-5-(1H-pyrazol-4-yl)-3,4-dihydro-1H-isoquinolin-2-yl]ethanone] | 7.8 | 61 | 6.31 |
| C[C@H]1c2cccc(-c3cnn(C)c3)c2C[C@H](CO)N1C(=O)Cc1c(Cl)ccc2[nH]nc(Cl)c12 [Example 4, 2-(3,5-dichloro-1H-indazol-4-yl)-1-[(1S,3R)-3-(hydroxymethyl)-1-methyl-5-(1-methylpyrazol-4-yl)-3,4-dihydro-1H-isoquinolin-2-yl]ethanone] | 10.1 | 63 | 7.94 |

Reference: patent publication US20240083875A1, “DIHYDROISOQUINOLINYL DERIVATIVES” (UCB BIOPHARMA SRL, priority 2020, published 2024)
